According to patent US5256671A, “Azabicyclic compounds, pharmaceutical compositions containing them and their use in therapy” (Merck Sharp & Dohme, Limited, priority 1992, dated 1993):
Structures can show the parent of a compound that is named as a salt. Where two headings read alike, the source gives them in different places.

Target: T1, human neurokinin-1-receptor (NK1R) (Homo sapiens, UniProt P25103)
T1 construct: expressed in transfected cells
Test: Substance P antagonism assay: 125I-substance P binding to human NK1R expressed in COS or CHO cells
Settings: 125I-SP displacement
Experimental: To express the cloned human neurokinin-1-receptor (NK1R) transiently in COS, the cDNA for the human NK1R was cloned into the expression vector pCDM9 which was derived from pCDM8 (INVITROGEN) by inserting the ampicillin resistance gene (nucleotide 1973 to 2964 from BLUESCRIPT SK+ (trademark, STRATAGENE, La Jolla, Calif., USA)) into the Sac II site. Transfection of 20 ug of the plasmid DNA into 10 million COS cells was achieved by electroporation in 800 μl of transfection buffer (135 mM NaCl, 1.2 mM CaCl2, 1.2 mM MgCl2, 2.4 mM K2 HPO4, 0.6 mM KH2 PO4, 10 mM glucose, 10 mM N-2-hydroxyethyl-piperazine-N'-2-ethane […] (HEPES) pH 7.4) at 260 V and 950 μF using the IBI GENEZAPPER (trademark IBI, New Haven, Conn., USA). The cells were incubated in 10% fetal calf serum, 2 mM glutamine, 100 U/ml penicillin-streptomycin, and 90% DMEM media (GIBCO, Grand Island, N.Y., USA) in 5% CO2 at 37° C. for three days before the binding assay.
To establish a stable cell line expressing cloned human […], the cDNA was subcloned into the vector pRcCMV (INVITROGEN). Transfection of 20 ug of the plasmid DNA into CHO cells was achieved by electroporation in 800 μl of transfection buffer supplemented with 0.625 mg/ml Herring sperm DNA at 300 V and 950 μF using the IBI GENEZAPPER (IBI). The transfected cells were incubated in CHO media [10% fetal calf serum, 100 U/ml penicillin-streptomycin, 2 mM glutamine, 1/500 hypoxanthine-thymidine (ATCC), 90% IMDM media (JRH BIOSCIENCES, Lenexa, Kans. USA), 0.7 mg/ml G418 (GIBCO)] in 5% CO2 at 37° C. until colonies were visible. Each colony was separated and propagated. The cell clone with the highest number of human NK1R was selected for subsequent applications such as drug screening.
The binding assay of human NK1R expressed in either COS or CHO cells is based on the use of ^125 I-substance P (^125 I-SP, from DU PONT, Boston, Mass.) as a radioactively labeled ligand which competes with unlabeled substance P or any other ligand for binding to the human NK1R. Monolayer cell cultures of COS or CHO were dissociated by the non-enzymatic solution (SPECIALTY MEDIA, Lavellette, N.J.) and resuspended in appropriate volume of the binding buffer (50 mM Tris pH 7.5, 5 mM MnCl2, 150 mM NaCl, 0.04 mg/ml bacitracin, 0.004 mg/ml leupeptin, 0.2 mg/ml BSA, 0.01 mM phosphoramidon) such that 200 μl of the cell suspension would give rise to about 10,000 cpm of specific ^125 I-SP binding (approximately 50,000 to 200,000 cells). In the binding assay, 200 μl of cells were added to a tube containing 20 μl of 1.5 to 2.5 nM of ^125 I-SP and 20 μl of unlabeled substance P or any other test compound. The tubes were incubated at 4° C. or at room temperature for 1 hour with gentle shaking. The bound radioactivity was separated from unbound radioactivity by GF/C filter (BRANDEL, Gaithersburg, Md.) which was pre-wetted with 0.1% polyethylenimine. The filter was washed with 3 ml of wash buffer (50 mM Tris pH 7.5, 5 mM MnCl2, 150 mM NaCl) three times and its radioactivity was determined by gamma counter.

T1 sequence (P25103 whole entry): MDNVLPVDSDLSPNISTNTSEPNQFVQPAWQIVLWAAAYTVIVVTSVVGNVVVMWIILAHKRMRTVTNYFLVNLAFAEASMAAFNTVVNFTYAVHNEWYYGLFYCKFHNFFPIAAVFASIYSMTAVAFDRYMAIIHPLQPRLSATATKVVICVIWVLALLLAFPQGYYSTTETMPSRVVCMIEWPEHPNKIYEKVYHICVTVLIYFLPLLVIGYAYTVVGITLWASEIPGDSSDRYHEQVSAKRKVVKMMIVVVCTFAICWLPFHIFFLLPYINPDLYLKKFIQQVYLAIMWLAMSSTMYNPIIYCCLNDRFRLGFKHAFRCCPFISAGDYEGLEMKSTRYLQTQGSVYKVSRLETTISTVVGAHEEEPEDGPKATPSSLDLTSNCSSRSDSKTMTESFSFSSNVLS

| Structure (SMILES) | IC50 (read-out: IC50 @ NK1R) [nM] | IC50 (IC50 @ NK1R) [nM] |
| --- | --- | --- |
| O=C(C=C1C2CCN(CC2)C1C(c1ccccc1)c1ccccc1)c1ccccc1 (stereo not drawn) [Example 8, E-3-[Methyleneketophenyl]-2-benzhydrylquinuclidine] | 190 |  |
| OC(C=C1C2CCN(CC2)C1Cc1ccccc1)c1cc(C(F)(F)F)cc(C(F)(F)F)c1 (single isomer, unassigned) [15 (DIASTEREOMER A), E-3-[Methylene-(3,5-bistrifluoromethylphenyl)hydroxymethyl]-2-benzyl quinuclidine] | 63 |  |
| Cc1cccc(C)c1C(O)C=C1C2CCN(CC2)C1C(c1ccccc1)c1ccccc1 (stereo not drawn) [Example 14, E[3-Methylene(2,6-dimethylphenyl)hydroxymethyl]-2-benzhydryl quinuclidine] | 90 |  |
| FC(F)(F)c1cccc(CC=C2C3CCN(CC3)C2C(c2ccccc2)c2ccccc2)c1 (stereo not drawn) [Example 6, E-3-[Methylene(3-trifluoromethyl)benzyl]-2-benzhydryl quinuclidine] | 100 |  |
| OC(C=C1C2CCN(CC2)C1C(c1ccccc1)c1ccccc1)c1cccc(C(F)(F)F)c1 (single isomer, unassigned) [3 (ISOMER A), E-3-[Methylene(3-trifluoromethylphenyl)hydroxymethyl]-2-benzyhydryl quinuclidine] |  | 30 |
| OC(C=C1C2CCN(CC2)C1C(c1ccccc1)c1ccccc1)c1ccccc1 (single isomer, unassigned) [4 (ISOMER B), E-3-[Methylene(hydroxymethyl)phenyl]-2-benzhydryl quinuclidine] | 200 |  |
| O=C(C=C1C2CCN(CC2)C1C(c1ccccc1)c1ccccc1)c1cc(C(F)(F)F)cc(C(F)(F)F)c1 (stereo not drawn) [Example 7, E-3-[Methylene(3,5-bistrifluoromethylphenyl)oxo]-2-benzhydryl quinuclidine] | > 300 |  |
| FC(C=C1C2CCN(CC2)C1C(c1ccccc1)c1ccccc1)c1cc(C(F)(F)F)cc(C(F)(F)F)c1 (single isomer, unassigned; isomer b) [Example 11, E-3-[Methylene-2-(3,5-bistrifluoromethyl)fluoromethyl]-2-benzhydrylquinuclidine (Isomer B)] | 9 |  |
| COc1ccccc1C(O)C=C1C2CCN(CC2)C1C(c1ccccc1)c1ccccc1 (single isomer, unassigned) [1 (ISOMER A)] |  | 50 |
| OC(C=C1C2CCN(CC2)C1C(c1ccccc1)c1ccccc1)c1cccc(C(F)(F)F)c1 (single isomer, unassigned) [3 (ISOMER B), E-3-[Methylene(3-trifluoromethylphenyl)hydroxymethyl]-2-benzyhydryl quinuclidine] |  | 110 |
| OC(C=C1C2CCN(CC2)C1Cc1ccccc1)c1cc(C(F)(F)F)cc(C(F)(F)F)c1 (single isomer, unassigned) [15 (DIASTEREOMER B), E-3-[Methylene-(3,5-bistrifluoromethylphenyl)hydroxymethyl]-2-benzyl quinuclidine] | 6 |  |
| FC(C=C1C2CCN(CC2)C1C(c1ccccc1)c1ccccc1)c1cc(C(F)(F)F)cc(C(F)(F)F)c1 (single isomer, unassigned; isomer a) [Example 10, E-3-[Methylene-2-(3,5-bistrifluoromethyl)fluoromethyl]-2-benzhydrylquinuclidine (Isomer A) oxalate salt] | 5 |  |
| COc1ccccc1C(O)C=C1C2CCN(CC2)C1C(c1ccccc1)c1ccccc1 (single isomer, unassigned) [1 (ISOMER B)] |  | 130 |
| C(Cc1ccccc1)=C1C2CCN(CC2)C1C(c1ccccc1)c1ccccc1 (stereo not drawn) [Example 5, E-3-[Methylenebenzyl]-2-benzhydryl quinuclidine] |  | 170 |
| Cc1cc(C)cc(C(O)C=C2C3CCN(CC3)C2C(c2ccccc2)c2ccccc2)c1 (stereo not drawn) [Example 13, E-[3-Methylene(3,5-dimethylphenyl)hydroxymethyl]-2-benzhydryl quinuclidine] |  | 13 |
| OC(C=C1C2CCN(CC2)C1C(c1ccccc1)c1ccccc1)c1ccc(F)cc1 (single isomer, unassigned) [2 (ISOMER B), E-[3-[Methylene(4-fluorophenyl)hydroxymethyl]-2-benzhydryl)quinuclidine] |  | 197 |
| OC(C=C1C2CCN(CC2)C1C(c1ccccc1)c1ccccc1)c1cc(C(F)(F)F)cc(C(F)(F)F)c1 (single isomer, unassigned) [9 (ISOMER A), E-3-[Methylene-2-(3,5-bistrifluoromethyl)hydroxymethyl]-2-benzhydrylquinuclidine] | 0.9 |  |
| Cc1cc(C)cc(C(=O)C=C2C3CCN(CC3)C2C(c2ccccc2)c2ccccc2)c1 (stereo not drawn) [Example 12, E-3-[Methylene-2-keto(3,5-dimethyl)phenyl]-2-benzhydryl quinuclidine] | 140 |  |
